First the molecules themselves.
B1: BDNF: Brain-derived neurotrophic factor, endogenous TrkB receptor agonist (protein, UniProt P23560 19-247, looked up)
Neurotrophic factor BDNF …: APMKEANIRGQGGLAYPGVRTHGTLESVNGPKAGSRGLTSLADTFEHVIEELLDEDQKVRPNEENNKDADLYTSRVMLSSQVPLEPPLLFLLEEYKNYLDAANMSMRVRRHSDPARRGELSVCDSISEWVTAADKKTAVDMSGGTVTVLEKVPVSKGQLKQYFYETKCNPMGYTKEGCRGIDKRHWNSQCRTTQSYVRALTMDSKKRIGWRFIRIDTSCVCTLTIKRGR

As usually defined, the Kd is a measure of binding affinity in units of concentration. Read a low Kd as tighter binding.

T1 sequence (Q16620 32-430): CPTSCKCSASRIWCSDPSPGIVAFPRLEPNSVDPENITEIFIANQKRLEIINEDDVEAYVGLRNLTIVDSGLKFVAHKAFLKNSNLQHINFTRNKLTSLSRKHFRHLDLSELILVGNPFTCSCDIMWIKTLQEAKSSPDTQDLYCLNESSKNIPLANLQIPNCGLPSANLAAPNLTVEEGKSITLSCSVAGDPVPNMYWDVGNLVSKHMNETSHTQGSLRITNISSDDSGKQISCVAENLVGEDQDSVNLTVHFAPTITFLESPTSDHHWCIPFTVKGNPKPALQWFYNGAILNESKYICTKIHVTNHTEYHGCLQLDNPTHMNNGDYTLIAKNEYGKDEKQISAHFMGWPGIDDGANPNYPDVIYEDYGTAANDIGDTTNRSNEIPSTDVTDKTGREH

This assay addresses T1, exTrkB (Homo sapiens, UniProt Q16620).
T1 construct: human TrkB receptor (exTrkB), residues 1−430, was cloned into the pCMV2 expression vector; made in house; host or cells: ExpiCHO-S cells
The assay can be described thus: MST binding affinity (Kd) determination. To be noted: non-binding compounds given as 0. The procedure: The gene encoding the extracellular domain of the human TrkB receptor (exTrkB), residues 1−430, was cloned into the pCMV2 expression vector. Protein expression was performed in suspension-cultivated mammalian ExpiCHO-S cells using the ExpiFectamine (Thermo Scientific, Thermo Fisher Scientific, Waltham, MA, USA) transfection reagent. The secreted protein was purified using a four-step protocol. Clarified culture medium was precipitated with ammonium sulfate added to a final concentration of 1.5 M and centrifuged (235,000× g, 60 min at 4 °C). The supernatant after centrifugation was applied on a HiTrap Phenyl column (GE Healthcare, Chicago, IL, USA) equilibrated with buffer A (25 mM Tris, 1 mM DTT; pH 7.5) with 1.5 M ammonium sulfate. Bound proteins were eluted with a linear gradient of buffer A. The eluted proteins were dialyzed overnight in buffer A and loaded on a CaptoQ ImpRes column (GE Healthcare) equilibrated with buffer A with 50 mM NaCl. The bound proteins were eluted with a linear gradient of buffer A with 1 M NaCl. The fractions containing exTrkB protein were pooled, and MnCl2 and CaCl2 (1mM final concentration each) were added. The sample was purified on a HiTrap Con A 4B column (GE Healthcare) equilibrated with buffer B (25 mM Tris, 0.5 M NaCl, 1 mM MnCl2, 1 mM CaCl2; pH 7.5) and eluted with buffer C (25 mM Tris, 0.1 M NaCl, 0.4 M α-D-glucopyranoside; pH 6.5). To improve the protein recovery, buffer C flow was paused nine times during elution. The eluted fractions were concentrated and purified by size-exclusion chromatography on a HiLoad 16/600 Superdex 200 column (GE Healthcare) in buffer A with 0.5 M NaCl. The protein samples were concentrated to 1 mg/mL, and buffer was exchanged (PBS; pH 7.4). Samples were frozen in liquid nitrogen and stored at −80 °C. The protein purity was estimated by SDS–PAGE followed by Coomassie Brilliant Blue staining. The protein concentration was determined from the absorption at 280 nm using an UV NanoDrop 1000 spectrophotometer (Thermo Scientific).
The exTrkB was labeled with a Monolith Protein Labeling Kit RED-NHS 2nd Generation (NanoTemper Technologies GmbH, Munich, Germany) according to the manufacturer’s protocol. The labelling efficiency was always determined spectrophotometrically with NanoPhotometer® NP80 (Impel) in line with the manufacturer’s recommendations. Labelled exTrkB protein was aliquoted and stored at −80 °C to avoid repeated freeze–thaw cycles. Before analysis, the exTrkB protein was thawed on ice and diluted with MST buffer (50 mM Tris pH = 8; 150 mM NaCl; 10 mM MgCl2; 0.1% Tween20) to the desired concentration.
For primary screening (single-point MST experiments for signal amplitude determination), each of the 987 screened compounds were diluted in MST buffer + 0.1% Tween20 to a final concentration of 0.5 mM. The tested compounds were mixed with exTrkB solution (the final concentration of exTrkB was 20 nM) and centrifuged (10,000× g, 4 min at 4 °C) to eliminate protein and compound aggregates. Before loading to capillaries (Monolith NT.115 Capillaries, NanoTemper Technologies GmbH), the samples were incubated for 5 min at 25 °C and then placed into the MST apparatus (Monolith, NanoTemper Technologies GmbH). The experiments were performed using nano-blue excitation, LED light adjusted to 20% excitation power, and MST power set to medium, and the fluorescence signal during thermophoresis was detected after 30 s. Single-point MST experiments were performed by the determination of the amplitude signal between the unbound and bound state between the molecule and exTrkB, which was analyzed using the MO.Control Software version 1.6 (NanoTemper Technologies GmbH). A reference sample containing only exTrkB and the equivalent DMSO concentration (v/v) was included in each individual MST experiment. At least three technical replicates were prepared for each of the tested compounds. A binding affinity study was performed for 113 of the selected compounds at 16 concentration points. […]
Turning to `O=C1C(O)=C(c2c[nH]c3ccccc23)C(=O)C(O)=C1c1c[nH]c2ccccc12` [CPL503052, didemethylasterriquinone D], the Kd was 2600 nM.
The molecule `O=c1cc(-c2ccccc2)oc2c(O)c(O)ccc12` [7,8-DHF, 7,8-dihydroxyflavone] showed a Kd of 1300 nM.
Then `C=CC(C)(C)c1[nH]c2ccccc2c1C1=C(O)C(=O)C(c2c[nH]c3c(CC=C(C)C)cccc23)=C(O)C1=O` [DMAQ-B1], with 5600 nM; and B1, with 93 nM.

Values taken from PMC8398766, “Do Small Molecules Activate the TrkB Receptor in the Same Manner as BDNF? Limitations of Published TrkB Low Molecular Agonists and Screening for Novel TrkB Orthosteric Agonists” (Pharmaceuticals, 2021).
